Columns and labels:
[1] = system: subjects with strictures and/or rings and EoE; assay: Clinical trial of FP ODT: dysphagia episodes (symptom response); type: in vivo, human; conditions: subgroup with strictures and/or Grade 2 rings at baseline, Week 12
Experimental: A clinical trial was performed to evaluate the effect of an orally disintegrating tablet (“ODT”) comprising fluticasone propionate (FP). A randomised, double-blind, placebo-controlled, multicentre, dose-ranging, and maintenance study of FP in subjects (>18 and <75 years of age) with strictures and/or rings and EoE. The trial examined four doses of FP to define the exposure-response of FP and the minimum effective dose to minimize significant hypothalamic-pituitary-adrenal (HPA) axis effects. The study (as shown in FIG. 1) was designed as follows. • (a) Screening: Patients with a confirmed diagnosis or presumptive diagnosis of EoE (including identifying strictures and/or rings) were selected for the study. An EoE diagnosis was confirmed by symptoms, histology, and historical documentation of failed treatment on >8 weeks of high-dose proton pump inhibitor (PPI). A high-dose PPI was defined as administration of a total dose of 20 to 40 mg of a marketed PPI once or twice daily.
Subjects that participated in Part 1 studies were randomized and administered a treatment selected from: • (a) 1.5 mg HS: Placebo 30 minutes after breakfast and 1.5 mg HS (at bedtime); • (b) 1.5 mg BID: 1.5 mg 30 minutes after breakfast and at bedtime; total daily dose of 3 mg; • (c) 3 mg HS: Placebo 30 minutes after breakfast and 3 mg at bedtime; and • (d) 3 mg BID: 3.0 mg 30 minutes after breakfast and at bedtime; total daily dose of 6 mg. […]

[2] = system: subjects with EoE (safety analysis set); assay: Clinical trial of FP ODT: treatment-emergent adverse events; type: in vivo, human
Experimental: Subjects that participated in Part 1 studies were randomized and administered a treatment selected from: • (a) 1.5 mg HS: Placebo 30 minutes after breakfast and 1.5 mg HS (at bedtime); • (b) 1.5 mg BID: 1.5 mg 30 minutes after breakfast and at bedtime; total daily dose of 3 mg; • (c) 3 mg HS: Placebo 30 minutes after breakfast and 3 mg at bedtime; and • (d) 3 mg BID: 3.0 mg 30 minutes after breakfast and at bedtime; total daily dose of 6 mg.
Patient Population: 105 subjects received at least 1 dose of study drug in Part 1 of the study safety analysis set (SAF population), and 92 subjects ([…]) of those subjects completed Week 14. […] Subjects were classified according to their randomized treatment.
Safety endpoints were measured such as Frequency of treatment-emergent adverse event (TEAEs); TEAEs leading to discontinuation; Treatment-emergent serious adverse events (SAEs); Percentage of subjects with serum cortisol level ≤5 μg/dL (≤138 nmol/L) or abnormal adrenocorticotropic hormone (ACTH) stimulation test (serum cortisol <16 μg/dL [≤440 nmol/L] at 60 minutes); The number of subjects discontinuing for HPA axis suppression will be recorded; and frequency of oral and esophageal candidiasis.

## S-(fluoromethyl)-6α,9-difluoro-11β, 17-dihydroxy-16α-methyl-3-oxoandrosta-1, 4-diene-17β-carbothioate, 17-propanoate [FP]
[1]; FP 1.5 mg BID (n = 12)
  Symptoms Responder Rate (≤50% reduction dysphagia episodes), %: 42%
[1]; FP 1.5 mg HS (n = 13)
  Symptoms Responder Rate (≤50% reduction dysphagia episodes), %: 77%
[1]; FP 3 mg BID (n = 7)
  Symptoms Responder Rate (≤50% reduction dysphagia episodes), %: 57%
[1]; FP 3 mg HS (n = 11)
  Symptoms Responder Rate (≤50% reduction dysphagia episodes), %: 73%
[1]; all FP dosing groups, TOTAL (n = 43)
  Symptoms Responder Rate (≤50% reduction dysphagia episodes), %: 63%
[2]; FP 1.5 mg BID (n = 23)
  At least 1 TEAE, (%): (74) %
  Maximum severity of TEAE: Mild, (%): (61) %
  Maximum severity of TEAE: Moderate, (%): (13) %
  TEAE leading to study discontinuation, (%): (9) %
  TEAE of special interest, (%): (13) %
  TEAE related to study drug, (%): (22) %
[2]; FP 1.5 mg HS (n = 21)
  At least 1 TEAE, (%): (62) %
  Maximum severity of TEAE: Mild, (%): (52) %
  Maximum severity of TEAE: Moderate, (%): (5) %
  Maximum severity of TEAE: Severe, (%): (5) %
  TEAE related to study drug, (%): (10) %
[2]; FP 3 mg BID (n = 20)
  At least 1 TEAE, (%): (85) %
  Maximum severity of TEAE: Mild, (%): (60) %
  Maximum severity of TEAE: Moderate, (%): (25) %
  TEAE leading to study discontinuation, (%): (5) %
  TEAE of special interest, (%): (35) %
  TEAE related to study drug, (%): (50) %
[2]; FP 3 mg HS (n = 21)
  At least 1 TEAE, (%): (76) %
  Maximum severity of TEAE: Mild, (%): (29) %
  Maximum severity of TEAE: Moderate, (%): (43) %
  Maximum severity of TEAE: Severe, (%): (5) %
  Serious TEAE, (%): (5) %
  TEAE of special interest, (%): (5) %
  TEAE related to study drug, (%): (29) %
[2]; Total FP (n = 85)
  At least 1 TEAE, (%): 74%
  Maximum severity of TEAE: Mild, (%): 51%
  Maximum severity of TEAE: Moderate, (%): 21%
  Maximum severity of TEAE: Severe, (%): 2 (2) %
  Serious TEAE, (%): 1 (1) %
  TEAE leading to study discontinuation, (%): 4%
  TEAE of special interest, (%): 13%
  TEAE related to study drug, (%): 25%
